Results as given in patent US12403088B2, “Ophthalmic compositions and methods for reducing oxidative damage to an eye lens” (University of Louisville Research Foundation, Inc., priority 2015, dated 2025).

Tested on: excised porcine lenses
Assay: Protein oxidation (OxyBlot) in excised porcine lenses cultured under hyperoxic conditions mimicking post-vitrectomy oxygen levels
Assay type: cell-based
Experimental: To assess the ability of the antioxidant compositions including non-reducing sugars to reduce oxidative damage to an eye lens of a subject, trehalose, a non-reducing disaccharide, was applied to lenses being cultured under hyperoxic (high oxygen) conditions that mimic post-vitrectomy intravitreal oxygen levels. Briefly, six excised porcine lenses were cultured in M199 media with 4% porcine serum at 37° C. for 1 week to acclimate to culture conditions. Then, 3 lenses were exposed to media with 7.5% trehalose while three control lenses remained untreated. At regular intervals, incubated lenses were examined under a dissecting microscope against a background of black gridlines. The oxygen concentration was controlled to mimic post-vitrectomy conditions. After 10 days, each lens was analyzed for protein oxidation using the OxBlot Oxidized Protein Detection Kit (Chemicon, International, Billerica, MA) to quantify the ability of the gel application method to protect the lens.
The method described above was used to compare the effect of a subject trehalose composition freely dispersed in the tissue culture media (FIG. 1, first bar) to a biogel composition that was described by Tezel et al. in WO2014081969A1 (“Compositions and methods for reducing oxidative damage”) and which includes trehalose within a polymer gel. […]

OC[C@H]1O[C@H](O[C@H]2O[C@H](CO)[C@@H](O)[C@H](O)[C@H]2O)[C@H](O)[C@@H](O)[C@@H]1O [trehalose, α,α-1,1-Trehalose]
amount of protein oxidation in the lens (in words) (administration of trehalose to the eye lens, ex vivo, FIG. 1): reduced an amount of protein oxidation in the lens | reduction in protein oxidation levels to (trehalose composition freely dispersed in tissue culture media (7.5% trehalose), hyperoxic culture, 10 days, FIG. 1 bar 1): about 20%
